This passage reports MIC and solubility results from US4496576A, “Compositions of p-hydroxybenzoic acid esters and methods of preparation and use” (priority 1983, dated 1985).

Converted amounts (≈) assume the structure as drawn. Where two headings read alike, the source gives them in different places. Some results are limits rather than exact numbers.

In series [1] the test system is Aspergillus niger ATCC 9642. Kind of series: minimum inhibitory concentration (agar plate growth inhibition). It counts as cell-based. As for the experimental part:
(§1) The mixture or composition prepared as in Example 1 was tested to determine the minimum inhibitory concentration (MIC) of the composition against various microorganisms (i.e., bacteria, yeast and fungi) according to the following procedure:
(§2) (1) Tryptic Soy Agar (TSA) was prepared according to the manufacturer's directions by suspending 40 g TSA in cold deionized water (1 liter). The suspension was heated to boiling in order to dissolve completely and then autoclaved for 15 minutes at 15 pounds pressure at 121° C.
(§3) (2) After autoclaving, the media was cooled to 45° C. in a water bath.
(§4) (3) At this point, the mixture was aseptically added to the TSA at different levels in order to obtain the desired test concentrations.
(§5) (2) The fungus inoculum consisted of 0.1 ml of a spore-saline suspension harvested by gently rubbing the spores from a 1-week old Sabourand dextrose agar slant incubated at 25° C. with sterile saline (10-10 CFU/ml).
(§6) (3) A sterile Dacron swab was used to spread the inoculum evenly over the entire agar surface.
(§7) (2) The fungus plates were incubated at 30° C. for 72-96 hours.

For series [2], the system named is Trichophyton mentagrophytes. The series is described as above. It counts as cell-based. The procedure: as §1, §2, §3, §4, §5, §6, §7
Series [3] concerns Penicillium chrysogenum ATCC 9480. The description is as above. It counts as cell-based. The procedure:
as §1, §2, §3, §4, §5, §6, §7

Series [4] concerns Serratia marcescens ATCC 8100. The series is described as above. It counts as cell-based. As for the experimental part: as §1, §2, §3, §4
(§8) (1) The bacteria and yeast inoculum consisted of 0.1 ml of a 1:100 saline dilution of an overnight TSB broth culture (10-10 CFU/ml). CFU=Colony Forming Units.
as §6
(§9) (1) The bacteria and yeast plates were incubated at 35° C. for 48 hours.

Series [5] has as its system Pseudomonas aeruginosa ATCC 15442. Described as above. It counts as cell-based. The procedure: as §1, §2, §3, §4, §8, §6, §9
The next series concerns Pseudomonas stutzeri. The description is as above. Type of series: cell-based. The settings on record: Stutzerimonas stutzeri, 48 h. As for the experimental part:
as §1, §2, §3, §4, §8, §6, §9

In series [6] the test system is Candida albicans ATCC 10231. The description is as above. Type of series: cell-based. The procedure: as §1, §2, §3, §4, §8, §6, §9
The subject of series [7] is Pseudomonas aeruginosa ATCC 9027. The description is as above. It counts as cell-based. As for the experimental part: as §1, §2, §3, §4, §8, §6, §9
The next series relates to Saccharomyces cerevisiae. The series is described as above. Type of series: cell-based. Conditions: 48 h. The procedure: as §1, §2, §3, §4, §8, §6, §9
A further series has as its system Streptococcus faecalis. Described as above. Type of series: cell-based. The settings on record: Enterococcus faecalis, 48 h. As for the experimental part:
as §1, §2, §3, §4, §8, §6, §9

For series [8], the system named is Bacillus subtilis ATCC 6633. Described as above. Type of series: cell-based. The procedure: as §1, §2, §3, §4, §8, §6, §9
The test system of series [9] is Staphylococcus aureus ATCC 6538. Described as above. It counts as cell-based. The procedure:
as §1, §2, §3, §4, §8, §6, §9

The subject of series [10] is Salmonella typhosa ATCC 6539. The description is as above. Type of series: cell-based. Conditions: Salmonella enterica, 48 h. As for the experimental part: as §1, §2, §3, §4, §8, §6, §9
In series [11] the test system is Klebsiella pneumoniae ATCC 8308. The description is as above. It counts as cell-based. As for the experimental part: as §1, §2, §3, §4, §8, §6, §9
Series [12] has as its system Escherichia coli ATCC 8739. Described as above. It counts as cell-based. The procedure: as §1, §2, §3, §4, §8, §6, §9
Series [13] concerns Pseudomonas aeruginosa ATCC 13388. The description is as above. It counts as cell-based. As for the experimental part: as §1, §2, §3, §4, §8, §6, §9
The test system of series [14] is Staphylococcus epidermidis ATCC 1228. The series is described as above. It counts as cell-based. As for the experimental part: as §1, §2, §3, §4, §8, §6, §9
In series [15] the test system is Enterobacter cloacae ATCC 23355. The series is described as above. Type of series: cell-based. The procedure:
as §1, §2, §3, §4, §8, §6, §9

The subject of series [16] is Proteus vulgaris ATCC 13315. Described as above. Type of series: cell-based. As for the experimental part:
as §1, §2, §3, §4, §8, §6, §9

The subject of series [17] is Pseudomonas aeruginosa ATCC 14502. The series is described as above. Type of series: cell-based. The procedure: as §1, §2, §3, §4, §8, §6, §9
The next series is described as follows: physchem. Conditions: water.
The mark [18] stands for this setting: ATCC9642, TSA, 30° C., 72-96 h, read-out: MIC.
The mark [19] stands for this setting: TSA, 30° C., 72-96 h, read-out: MIC.
[20] abbreviates: ATCC9480, TSA, 30° C., 72-96 h, read-out: MIC.
Setting [21] is: ATCC8100, TSA, 35° C., 48 h, read-out: MIC.
[22] abbreviates: ATCC15442, TSA, 35° C., 48 h, read-out: MIC.
Setting [23] is: ATCC10231, TSA, 35° C., 48 h, read-out: MIC.
Where [24] appears, read: ATCC9027, TSA, 35° C., 48 h, read-out: MIC.
[25] abbreviates: ATCC6633, TSA, 35° C., 48 h, read-out: MIC.
Where [26] appears, read: ATCC6538, TSA, 35° C., 48 h, read-out: MIC.
Setting [27] is: ATCC8308, TSA, 35° C., 48 h, read-out: MIC.
Where [28] appears, read: ATCC8739, TSA, 35° C., 48 h, read-out: MIC.
Where [29] appears, read: ATCC13388, TSA, 35° C., 48 h, read-out: MIC.
[30] abbreviates: ATCC1228, TSA, 35° C., 48 h, read-out: MIC.
Setting [31] is: ATCC23355, TSA, 35° C., 48 h, read-out: MIC.
The mark [32] stands for this setting: ATCC13315, TSA, 35° C., 48 h, read-out: MIC.
The mark [33] stands for this setting: ATCC14502, TSA, 35° C., 48 h, read-out: MIC.

A word on the MIC: it is the smallest concentration in the dilution series that meets the test's criterion for growth inhibition. One may read the solubility as the dissolved amount per volume that the medium holds. In the case of `CC(C)COC(=O)c1ccc(O)cc1` [Isobutyl p-Hydroxybenzoate, isobutyl p-hydroxybenzoate], the MIC in series [1] (setting [18]) was 250 µg/mL (≈ 1290 µM); in [2] (setting [19]) it was 63 µg/mL (≈ 324 µM); in series [3] (setting [20]) it was 125 µg/mL (≈ 644 µM); in [4] (setting [21]), 1000 µg/mL (≈ 5150 µM); in series [5] (setting [22]), > 1000 µg/mL; in the series with Pseudomonas stutzeri (TSA, 35° C., read-out: MIC), > 1000 µg/mL. Further, the minimum inhibitory concentration (MIC) in series [6] (setting [23]) is 125 µg/mL (≈ 644 µM); in [7] (setting [24]), > 1000 µg/mL; in the series with Saccharomyces cerevisiae (TSA, 35° C., read-out: MIC) it was 125 µg/mL (≈ 644 µM); in the series with Streptococcus faecalis (TSA, 35° C., read-out: MIC), 500 µg/mL (≈ 2570 µM); in [8] (setting [25]) it was 250 µg/mL (≈ 1290 µM); in [9] (setting [26]) it was 250 µg/mL (≈ 1290 µM). Besides, the MIC is 1000 µg/mL (≈ 5150 µM) in series [10]; 500 µg/mL (≈ 2570 µM) in series [11] (setting [27]); > 1000 µg/mL in series [12] (setting [28]); > 1000 µg/mL in [13] (setting [29]); 250 µg/mL (≈ 1290 µM) in [14] (setting [30]); 1000 µg/mL (≈ 5150 µM) in series [15] (setting [31]). Moreover, the minimum inhibitory concentration (MIC) in series [16] (setting [32]) was 250 µg/mL (≈ 1290 µM); in series [17] (setting [33]), > 1000 µg/mL. Further, the solubility in the series “physchem” was 200 µg/mL (≈ 1030 µM).
Regarding `CC(C)OC(=O)c1ccc(O)cc1` [Isopropyl p-Hydroxybenzoate, isopropyl p-hydroxybenzoate], the MIC in series [1] (setting [18]) was 250 µg/mL (≈ 1390 µM); in series [2] (setting [19]), < 125 µg/mL; in series [3] (setting [20]), < 125 µg/mL; in series [4] (setting [21]), 1000 µg/mL (≈ 5550 µM); in [5] (setting [22]) it was > 2000 µg/mL; in the series with Pseudomonas stutzeri (TSA, 35° C., read-out: MIC), 1000 µg/mL (≈ 5550 µM). Besides, the minimal inhibitory concentration (MIC) was 250 µg/mL (≈ 1390 µM) in series [6] (setting [23]); 2000 µg/mL (≈ 11100 µM) in series [7] (setting [24]); < 125 µg/mL in the series with Saccharomyces cerevisiae (TSA, 35° C., read-out: MIC); 1000 µg/mL (≈ 5550 µM) in the series on Streptococcus faecalis (TSA, 35° C., read-out: MIC); 500 µg/mL (≈ 2770 µM) in [8] (setting [25]); 1000 µg/mL (≈ 5550 µM) in [9] (setting [26]). The MIC in [10] is 1000 µg/mL (≈ 5550 µM); in series [11] (setting [27]) it was 500 µg/mL (≈ 2770 µM); in [12] (setting [28]) it was 1000 µg/mL (≈ 5550 µM); in series [13] (setting [29]) it was > 2000 µg/mL; in series [14] (setting [30]), 500 µg/mL (≈ 2770 µM); in [15] (setting [31]), 1000 µg/mL (≈ 5550 µM). Besides, the results for the MIC in series [16] (setting [32]) and in [17] (setting [33]) were 500 µg/mL (≈ 2770 µM) and > 2000 µg/mL, respectively. Further, in the series “physchem”, the solubility was 800 µg/mL (≈ 4440 µM).
With `CCCCOC(=O)c1ccc(O)cc1` [n-Butyl p-Hydroxybenzoate, n-butyl p-hydroxybenzoate], the MIC is 125 µg/mL (≈ 644 µM) in series [1] (ATCC9642); 32 µg/mL (≈ 165 µM) in series [2]; 63 µg/mL (≈ 324 µM) in [3] (ATCC9480); 500 µg/mL (≈ 2570 µM) in series [4] (ATCC8100, 48 h); > 6000 µg/mL in [5] (ATCC15442, 48 h); 500 µg/mL (≈ 2570 µM) in the series with Pseudomonas stutzeri. The minimal inhibitory concentration (MIC) in series [6] (ATCC10231, 48 h) was 125 µg/mL (≈ 644 µM); in [7] (ATCC9027, 48 h), > 6000 µg/mL; against Saccharomyces cerevisiae, 32 µg/mL (≈ 165 µM); with Streptococcus faecalis, 250 µg/mL (≈ 1290 µM); in series [8] (ATCC6633, 48 h) it was 250 µg/mL (≈ 1290 µM); in series [9] (ATCC6538, 48 h), 125 µg/mL (≈ 644 µM). Also, the MIC was 500 µg/mL (≈ 2570 µM) in series [10]; 250 µg/mL (≈ 1290 µM) in series [11] (ATCC8308, 48 h); 500 µg/mL (≈ 2570 µM) in [12] (ATCC8739, 48 h); > 6000 µg/mL in series [13] (ATCC13388, 48 h); 250 µg/mL (≈ 1290 µM) in series [14] (ATCC1228, 48 h); 250 µg/mL (≈ 1290 µM) in [15] (ATCC23355, 48 h). For the same compound, the MIC in series [16] (ATCC13315, 48 h) is 125 µg/mL (≈ 644 µM); in series [17] (ATCC14502, 48 h) it was > 6000 µg/mL. For the same compound, the solubility in “water solubility” came out at 150 µg/mL (≈ 772 µM).
